In brackets after ≈: the same amount, converted by molar mass. Activity calls are given as the source filed them. The calls are words filed in the database; no cut-off is given here.

The test system of experiment [1] is Pyricularia grisea. The experiment in a line: Inhibition of chlorophenylthio-cAMP-induced appressorium formation in germinating conidia of Magnaporthe grisea P1. Type of experiment: functional, organism-based.
Experiment [2] relates to Pyricularia grisea. Briefly: Inhibition of hydrophobic gel bonded surface-induced appressorium formation in germinating conidia of Magnaporthe grisea P1. Type of experiment: functional, organism-based.
Experiment [3] relates to HeLa. Briefly: Cytotoxicity against human HeLa S3 cells. Type of experiment: functional, cell-based.
Experiment [4] is described as follows: Cytotoxicity against mouse B16-F1cells. It is filed as functional, cell-based. Conditions: B16-F1.
For experiment [5], the system named is Pyricularia grisea. The experiment in a line: Inhibition of 1,16-hexadecanediol-induced appressorium formation in germinating conidia of Magnaporthe grisea P1. It is filed as functional, organism-based.
Experiment [6] deals with HL-60. Briefly: Cytotoxicity against human HL60 cells. It is filed as functional, cell-based.
Experiment [7] deals with Jurkat. Briefly: Cytotoxicity against human Jurkat cells. It is filed as functional, cell-based.

With `C=C[C@@](C)(O)CC/C=C(\C)CC[C@H](O)C(C)(C)O`, the IC50 (as a rule, the concentration that inhibits the measured activity by half) in experiment [1] is 10 µg/mL (≈ 39 µM); in experiment [3] it was 75 µg/mL (≈ 293 µM); in experiment [4], 75 µg/mL (≈ 293 µM); in experiment [6] it was 5 µg/mL (≈ 19.5 µM); in experiment [7] it was 20 µg/mL (≈ 78 µM). In addition, the result in experiment [2] and in experiment [5] was inactive.
Take `C/C1=C\[C@@H](O)C/C(C)=C/[C@H](O)[C@H]([C@@H](C)CO)CC1`: the IC50 is 50 µg/mL (≈ 197 µM) in experiment [1]; above 100 µg/mL in experiment [3]; above 100 µg/mL in experiment [4]; 10 µg/mL (≈ 39.3 µM) in experiment [6]; 20 µg/mL (≈ 78.6 µM) in experiment [7]. The result in experiment [2] and in experiment [5] was inactive.
